Measured values taken from PMC7309260, “Peptide Probes for Plasmodium falciparum MyoA Tail Interacting Protein (MTIP): Exploring the Druggability of the Malaria Parasite Motor Complex” (ACS Chemical Biology, 2020).
Read-outs that look alike come from different tables or passages of the source. Where a SMILES comes first, the peptide text is derived from it. Where no end group is shown, it is not given here. [ ]: non-standard residue; d: D form. The star is where a group is joined. 5FAM = O=C1OC2(c3ccc(O)cc3Oc3cc(O)ccc32)c2ccc(C(=O)*)cc21; Abu(3-Me-diazirin-3-yl) = CC1(CC[C@H](N)C(=O)O)N=N1

What was measured:
[1] = tested on: P. falciparum late schizonts; settings: 10 μM peptide, 3 h
[2] = tested on: P. falciparum (3D7 strain); settings: for uptake of polyarginines compared by chain length: flow cytometry (Figure 2c)
PfMTIPΔ60 [3] = molecular target: T1, PfMTIPΔ60 (Plasmodium falciparum, UniProt Q8I4W8); assay: biochemical; type: binding
T1 construct: PfMTIPΔ60 stocks were recombinantly expressed in E. coli BL21; made in house; host or cells: E. coli BL21

P. falciparum [4] = settings: read-out: EC50, P. falciparum reinvasion / cell viability; serial dilution of peptides in triplicate, egress in presence of peptide, flow cytometry at trophozoite stage, n = 3
PfMTIPΔ60 [5] = molecular target: T1, PfMTIPΔ60; assay: biochemical; type: binding; settings: for n (ITC stoichiometry) / ΔH (ITC) / ΔS (ITC): 303 K, n = 2
P. falciparum [6] = assay: microbe, parasite or virus in culture; settings: Plasmodium falciparum, read-out: EC50, P. falciparum reinvasion control curve
[7] = 1% TX-100, densitometry, 2 µL loading
[8] = 1% TX-100, densitometry, 5 µL loading
[9] = 1% TX-100, densitometry, average of 2 µL and 5 µL loadings
[10] = densitometry, average of 2 µL and 5 µL loadings

CC[C@H](C)[C@H](NC(=O)[C@H](Cc1c[nH]cn1)NC(=O)[C@H](C)NC(=O)[C@H](CCC(N)=O)NC(=O)[C@@H](NC(=O)[C@H](CCCNC(=N)N)NC(=O)[C@H](CC(C)C)NC(=O)[C@H](CC(C)C)NC(=O)[C@H](CO)NC(=O)[C@@H]1CCCN1C(=O)[C@@H](NC(=O)[C@H](CC(N)=O)NC(=O)[C@H](CCCNC(=N)N)NC(=O)CNC(=O)c1ccc2c(c1)C(=O)OC21c2ccc(O)cc2Oc2cc(O)ccc21)[C@@H](C)CC)C(C)C)C(=O)N[C@@H](CCCNC(=N)N)C(=O)N[C@@H](CCCNC(=N)N)C(=O)N[C@@H](CCCNC(=N)N)C(=O)N[C@@H](CCSC)C(=O)N[C@H](C(N)=O)C(C)C [F-ArgMy1] (5FAM-GRNIPSLLRVQAHIRRRMV-NH2)
In vivo Conc, TX I (insoluble) [1, 7]: 0.06 µM
In vivo Conc, TX S (soluble) [1, 7]: 2.94 µM
In vivo Conc, TX I (insoluble) [1, 8]: 0.39 µM
In vivo Conc, TX S (soluble) [1, 8]: 7.17 µM
In vivo Conc, TX I (insoluble), Av. [1, 9]: 0.22 µM
In vivo Conc, TX S (soluble), Av. [1, 9]: 5.06 µM
In vivo Conc, SLO S (soluble) ([1]; densitometry, 2 µL loading): 2.03 µM
In vivo Conc, SLO I (insoluble) ([1]; densitometry, 5 µL loading): 0.93 µM
In vivo Conc, SLO S (soluble) ([1]; densitometry, 5 µL loading): 3.01 µM
In vivo Conc, SLO I (insoluble), Av. [1, 10]: 0.51 µM
In vivo Conc, SLO S (soluble), Av. [1, 10]: 2.52 µM
In vivo Conc, SLO I (insoluble) ([1]; late schizonts, densitometry of in-gel fluorescence, 2 µL loading): 0.10 µM
fold improvement in uptake compared to F-My1 ([2]; Pf3D7 early schizonts, flow cytometry (Figure 2d)): 2 fold
permeability, share of all parasitized cells ([2]; midstage schizonts, flow cytometry): up to 50%
Kd (PfMTIPΔ60 [3]): 3.9 nM
EC50 (P. falciparum [4]): ~160000 nM

CC[C@H](C)[C@H](NC(=O)[C@H](Cc1c[nH]cn1)NC(=O)[C@H](CCCNC(=N)N)NC(=O)[C@H](CCC(N)=O)NC(=O)[C@@H](NC(=O)[C@H](C)NC(=O)[C@H](CC(C)C)NC(=O)[C@H](CCCNC(=N)N)NC(=O)[C@H](CO)NC(=O)[C@@H]1CCCN1C(=O)[C@@H](NC(=O)[C@H](CC(N)=O)NC(=O)[C@H](CC(C)C)NC(=O)CNC(=O)c1ccc2c(c1)C(=O)OC21c2ccc(O)cc2Oc2cc(O)ccc21)[C@@H](C)CC)C(C)C)C(=O)N[C@@H](CCCNC(=N)N)C(=O)N[C@@H](CCCNC(=N)N)C(=O)N[C@@H](CCCNC(=N)N)C(=O)N[C@@H](CCSC)C(=O)N[C@H](C(N)=O)C(C)C [F-ArgMy2] (5FAM-GLNIPSRLAVQRHIRRRMV-NH2)
Kd (PfMTIPΔ60 [3]): 4220 nM

CC[C@H](C)[C@H](NC(=O)[C@H](Cc1c[nH]cn1)NC(=O)[C@H](C)NC(=O)[C@H](CCC(N)=O)NC(=O)[C@@H](NC(=O)[C@H](CCCNC(=N)N)NC(=O)[C@H](CC(C)C)NC(=O)[C@H](CC(C)C)NC(=O)[C@H](CO)NC(=O)[C@@H]1CCCN1C(=O)[C@@H](NC(=O)[C@H](CC(N)=O)NC(=O)[C@H](CCCCN)NC(=O)CNC(=O)c1ccc2c(c1)C(=O)OC21c2ccc(O)cc2Oc2cc(O)ccc21)[C@@H](C)CC)C(C)C)C(=O)N[C@@H](CCCNC(=N)N)C(=O)N[C@@H](CCCCN)C(=O)N[C@@H](CCCCN)C(=O)N[C@@H](CCSC)C(=O)N[C@H](C(N)=O)C(C)C [F-My1] (5FAM-GKNIPSLLRVQAHIRKKMV-NH2)
Kd (PfMTIPΔ60 [5]): 57.1 ± 13 nM
n (ITC stoichiometry) (PfMTIPΔ60 [5]): 0.91 ± 0.01
ΔH (ITC) (PfMTIPΔ60 [5]): -17.6 ± 0.22 kcal/mol
ΔS (ITC) (PfMTIPΔ60 [5]): -104 J/K.mol
EC50 (P. falciparum [4]): ~160000 nM

CC[C@H](C)[C@H](NC(=O)[C@H](Cc1c[nH]cn1)NC(=O)[C@H](C)NC(=O)[C@H](CCC(N)=O)NC(=O)[C@@H](NC(=O)[C@H](CCCNC(=N)N)NC(=O)[C@H](CC(C)C)NC(=O)[C@H](CC(C)C)NC(=O)[C@H](CO)NC(=O)[C@@H]1CCCN1C(=O)[C@@H](NC(=O)[C@H](CC(N)=O)NC(=O)[C@H](CCCCN)NC(=O)CNC(=O)[C@H](CCC1(C)N=N1)NC(=O)c1ccc2c(c1)C(=O)OC21c2ccc(O)cc2Oc2cc(O)ccc21)[C@@H](C)CC)C(C)C)C(=O)N[C@@H](CCCNC(=N)N)C(=O)N[C@@H](CCCCN)C(=O)N[C@@H](CCCCN)C(=O)N[C@@H](CCSC)C(=O)N[C@H](C(N)=O)C(C)C [F/D-My1] (5FAM-[Abu(3-Me-diazirin-3-yl)]GKNIPSLLRVQAHIRKKMV-NH2)
Kd (PfMTIPΔ60 [3]): 3.4 nM

C[C@H]1[C@@H](O)O[C@@H]2O[C@@]3(C)CC[C@H]4[C@H](C)CC[C@@H]1[C@@]24OO3 [dihydroartemisin, Dihydroartemisinin]
EC50 (P. falciparum [6]): 10 nM

FAM GRRRRRR -NH2 [F-Arg6]
uptake of polyarginines compared by chain length ([2]; Pf3D7 early schizonts): significant improvement over F-Arg4

FAM GRRRRRRR -NH2 [F-Arg7]
uptake of polyarginines compared by chain length ([2]; Pf3D7 early schizonts): significantly greater than F-Arg6

FAM GRRRRRRRR -NH2 [F-Arg8]
uptake compared with F-My1 ([2]; Pf3D7 early schizonts ca. 35 h PI, flow cytometry, unpaired t test (Figure 2b)): significantly greater permeability over F-My1
uptake of polyarginines compared by chain length ([2]; Pf3D7 early schizonts): significantly greater than F-Arg6

KNIPSLLRVQAHIRKKMV-NH2 (C-terminus assumed) [My1]
n (ITC stoichiometry) (PfMTIPΔ60 [5]): 1.06 ± 0.01
ΔH (ITC) (PfMTIPΔ60 [5]): -15.9 ± 0.12 kcal/mol
ΔS (ITC) (PfMTIPΔ60 [5]): -85.9 J/K.mol
